Where two headings read alike, the source gives them in different places.
Key:
[1] = biological target: T1, AHR (Homo sapiens, UniProt P35869); assay: In vitro assay 2: agonism in human cell line (transactivation assay)
T1 sequence (P35869 11-848): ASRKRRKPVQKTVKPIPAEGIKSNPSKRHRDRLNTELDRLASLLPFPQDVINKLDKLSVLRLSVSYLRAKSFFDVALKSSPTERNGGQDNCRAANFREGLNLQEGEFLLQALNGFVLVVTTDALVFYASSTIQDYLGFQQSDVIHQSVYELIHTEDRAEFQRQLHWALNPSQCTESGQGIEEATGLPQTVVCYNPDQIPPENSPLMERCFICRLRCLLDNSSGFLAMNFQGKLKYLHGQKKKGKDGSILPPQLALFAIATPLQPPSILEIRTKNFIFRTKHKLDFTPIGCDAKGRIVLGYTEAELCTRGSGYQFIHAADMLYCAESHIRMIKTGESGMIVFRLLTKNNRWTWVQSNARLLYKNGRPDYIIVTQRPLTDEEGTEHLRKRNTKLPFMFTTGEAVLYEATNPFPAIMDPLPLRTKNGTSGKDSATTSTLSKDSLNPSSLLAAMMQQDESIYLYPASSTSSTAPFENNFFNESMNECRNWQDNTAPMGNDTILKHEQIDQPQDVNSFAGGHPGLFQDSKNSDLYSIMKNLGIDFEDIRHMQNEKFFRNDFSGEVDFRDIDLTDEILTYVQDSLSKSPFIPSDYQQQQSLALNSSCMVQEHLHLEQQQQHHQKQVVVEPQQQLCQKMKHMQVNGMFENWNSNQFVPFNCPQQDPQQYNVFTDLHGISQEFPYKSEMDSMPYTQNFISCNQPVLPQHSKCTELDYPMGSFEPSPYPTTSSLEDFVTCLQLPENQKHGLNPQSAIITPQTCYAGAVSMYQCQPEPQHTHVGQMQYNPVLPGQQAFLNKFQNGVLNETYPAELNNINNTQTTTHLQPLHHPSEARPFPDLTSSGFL

[2] = test system: AHR-regulated gene CYP1A1; assay: In vitro assay 3: AHR-regulated CYP1A1 expression in human cell line (U937, qPCR)
[3] = biological target: T1, AHR; assay: In vitro assay 1: antagonism in human cell line (transactivation assay, kynurenic acid prestimulated); details: Assay 1: AHR-luc Hum Antagonism IC50 [M], 150 μM kynurenic acid, 20 hours, firefly luciferase
[4] = Assay 2: AHR-luc Hum Agonism IC50 [M], no kynurenic acid, 20 hours, firefly luciferase
[5] = read-out: Assay 3: Hum CYP1A1 Antagonism IC50, U937 cells, 200 μM KA, 6 hours, qPCR
[6] = read-out: Assay 2: AHR-luc Hum Agonism IC50, no kynurenic acid, 20 hours, firefly luciferase
[7] = Homo sapiens, U-937, 6 h, read-out: Assay 3: Hum CYP1A1 Antagonism IC50 [M], U937 cells, 200 μM KA, 6 hours, qPCR

| SMILES | IC50 [1, 4] [M] | IC50 [2, 5] [M] | IC50 [3] [M] | IC50 [1, 6] [M] | IC50 [2, 7] [M] |
| --- | --- | --- | --- | --- | --- |
| O=C(NCC(O)C(F)(F)F)c1cc(-c2ccc(Cl)cc2)nn(-c2cccc(F)c2)c1=O (single isomer, unassigned) [Example 26, 6-(4-Chlorophenyl)-2-(3-fluorophenyl)-3-oxo-N-(3,3,3-trifluoro-2-hydroxypropyl)-2,3-dihydropyridazine-4-carboxamide] | > 2e-05 | 3.52e-08 | 1.84e-08 |  |  |
| O=C(NCC(O)C(F)(F)F)c1cc(-c2ccc(Cl)cc2)nn(-c2cccc(F)c2)c1=O (single isomer, unassigned) [Example 27, 6-(4-Chlorophenyl)-2-(3-fluorophenyl)-3-oxo-N-(3,3,3-trifluoro-2-hydroxypropyl)-2,3-dihydropyridazine-4-carboxamide] |  | 2.44e-07 | 1.06e-07 | > 2e-05 |  |
| CC(C)C(O)CNC(=O)c1cc(-c2ccc(Cl)cc2)nn(-c2cccc(F)c2)c1=O (single isomer, unassigned) [Example 29, 6-(4-Chlorophenyl)-2-(3-fluorophenyl)-N-(2-hydroxy-3-methylbutyl]-3-oxo-2,3-dihydropyridazine-4-carboxamide] | > 2e-05 |  | 9.15e-08 |  | 1.55e-07 |
| CC(C)C(O)CNC(=O)c1cc(-c2ccc(Cl)cc2)nn(-c2cccc(F)c2)c1=O (single isomer, unassigned) [Example 30, 6-(4-Chlorophenyl)-2-(3-fluorophenyl)-N-(2-hydroxy-3-methylbutyl]-3-oxo-2,3-dihydropyridazine-4-carboxamide] |  | 1.77e-07 | 1.33e-07 | > 2e-05 |  |
| O=C(NCC(O)C(F)(F)F)c1cc(-c2ccc(Cl)cc2)nn(-c2cc(F)cc(F)c2)c1=O (single isomer, unassigned) [Example 45, 6-(4-Chlorophenyl)-2-(3,5-difluorophenyl)-3-oxo-N-(3,3,3-trifluoro-2-hydroxypropyl)-2,3-dihydropyridazine-4-carboxamide] | > 2e-05 |  | 1.02e-08 |  | 1.18e-08 |
| CC(C)C(O)CNC(=O)c1cc(-c2ccc(Cl)cc2)nn(-c2cc(F)cc(F)c2)c1=O (single isomer, unassigned) [Example 49, 6-(4-Chlorophenyl)-2-(3,5-difluorophenyl)-N-(2-hydroxy-3-methylbutyl)-3-oxo-2,3-dihydropyridazine-4-carboxamide] | > 2e-05 | 4.92e-08 | 3.42e-08 |  |  |
| CC(C)C(O)CNC(=O)c1cc(-c2ccc(Cl)cc2)nn(-c2cc(F)cc(F)c2)c1=O (single isomer, unassigned) [Example 50, 6-(4-Chlorophenyl)-2-(3,5-difluorophenyl)-N-(2-hydroxy-3-methylbutyl)-3-oxo-2,3-dihydropyridazine-4-carboxamide] |  | 1.51e-07 | 5.8e-08 | > 2e-05 |  |
| Cc1ccc(-c2cc(C(=O)NCC(O)C(C)C)c(=O)n(-c3cc(F)cc(F)c3)n2)cc1 (single isomer, unassigned) [Example 57, 2-(3,5-Difluorophenyl)-N-(2-hydroxy-3-methylbutyl)-6-(4-methylphenyl)-3-oxo-2,3-dihydropyridazine-4-carboxamide] | > 2e-05 | 3.83e-08 | 3.49e-08 |  |  |
| Cc1ccc(-c2cc(C(=O)NCC(O)C(C)C)c(=O)n(-c3cc(F)cc(F)c3)n2)cc1 (single isomer, unassigned) [Example 58, 2-(3,5-Difluorophenyl)-N-(2-hydroxy-3-methylbutyl)-6-(4-methylphenyl)-3-oxo-2,3-dihydropyridazine-4-carboxamide] |  | 1.34e-07 | 4.28e-08 | > 2e-05 |  |
| O=C(NCC(O)C(F)(F)F)c1cc(-c2ccc(C(F)F)cc2)nn(-c2cccc(F)c2)c1=O (single isomer, unassigned) [Example 95, 6-[4-(Difluoromethyl)phenyl]-2-(3-fluorophenyl)-3-oxo-N-(3,3,3-trifluoro-2-hydroxypropyl)-2,3-dihydropyridazine-4-carboxamide] | > 2e-05 | 7.63e-09 | 6.77e-09 |  |  |
| O=C(NCC(O)C(F)(F)F)c1cc(-c2ccc(C(F)F)cc2)nn(-c2cccc(F)c2)c1=O (single isomer, unassigned) [Example 96, 6-[4-(Difluoromethyl)phenyl]-2-(3-fluorophenyl)-3-oxo-N-(3,3,3-trifluoro-2-hydroxypropyl)-2,3-dihydropyridazine-4-carboxamide] |  | 4.03e-08 | 2.92e-08 | > 2e-05 |  |
| COc1ccc(-c2cc(C(=O)NC(CO)C(F)(F)F)c(=O)n(-c3cccc(F)c3)n2)cc1 (single isomer, unassigned) [Example 101, 2-(3-fluorophenyl)-6-(4-methoxyphenyl)-3-oxo-N-(1,1,1-trifluoro-3-hydroxypropan-2-yl)-2,3-dihydropyridazine-4-carboxamide] | > 2e-05 | 1.88e-08 | 1.24e-08 |  |  |
| COc1ccc(-c2cc(C(=O)NC(CO)C(F)(F)F)c(=O)n(-c3cccc(F)c3)n2)cc1 (single isomer, unassigned) [Example 102, 2-(3-Fluorophenyl)-6-(4-methoxyphenyl)-3-oxo-N-(1,1,1-trifluoro-3-hydroxypropan-2-yl)-2,3-dihydropyridazine-4-carboxamide] |  | 4.37e-08 | 4.22e-08 | > 2e-05 |  |
| O=C(N[C@@H]1CCCC[C@@H]1O)c1cc(-c2ccc(Cl)cc2)nn(-c2cccc(F)c2)c1=O (single isomer, unassigned) [Example 104, 6-(4-Chlorophenyl)-2-(3-fluorophenyl)-N-(cis-2-hydroxycyclohexyl)-3-oxo-2,3-dihydropyridazine-4-carboxamide] | > 2e-05 |  | 1.57e-08 |  | 1.64e-08 |
| COc1ccc(-c2cc(C(=O)N[C@@H]3CCCC[C@@H]3O)c(=O)n(-c3cccc(F)c3)n2)cc1 (single isomer, unassigned) [Example 107, 2-(3-Fluorophenyl)-N-(cis-2-hydroxycyclohexyl)-6-(4-methoxyphenyl)-3-oxo-2,3-dihydropyridazine-4-carboxamide] | > 2e-05 |  | 1.76e-08 |  | 1.83e-08 |
| O=C(N[C@H]1CCCC[C@@H]1O)c1cc(-c2ccc(Cl)cc2)nn(-c2cccc(F)c2)c1=O (single isomer, unassigned) [Example 118, 6-(4-chlorophenyl)-2-(3-fluorophenyl)-N-(trans-2-hydroxycyclohexyl)-3-oxo-2,3-dihydropyridazine-4-carboxamide] | > 2e-05 |  | 3.25e-08 |  | 3.13e-08 |
| O=C(N[C@H]1CCC[C@@H]1O)c1cc(-c2ccc(Cl)cc2)nn(-c2cccc(F)c2)c1=O (single isomer, unassigned) [Example 124, 6-(4-Chlorophenyl)-2-(3-fluorophenyl)-N-(trans-2-hydroxycyclopentyl)-3-oxo-2,3-dihydropyridazine-4-carboxamide] | > 2e-05 |  | 3.65e-08 |  | 3.59e-08 |
| COc1ccc(-c2cc(C(=O)NCC(O)C(F)(F)F)c(=O)n(-c3cccc(F)c3)n2)cc1 (single isomer, unassigned) [Example 127, 2-(3-Fluorophenyl)-6-(4-methoxyphenyl)-3-oxo-N-(3,3,3-trifluoro-2-hydroxypropyl)-2,3-dihydropyridazine-4-carboxamide] | > 2e-05 | 6.08e-08 | 4.05e-08 |  |  |
| COc1ccc(-c2cc(C(=O)NCC(O)C(F)(F)F)c(=O)n(-c3cccc(F)c3)n2)cc1 (single isomer, unassigned) [Example 128, 2-(3-Fluorophenyl)-6-(4-methoxyphenyl)-3-oxo-N-(3,3,3-trifluoro-2-hydroxypropyl)-2,3-dihydropyridazine-4-carboxamide] |  | 6e-07 | 1.7e-07 | > 2e-05 |  |
| O=C(N[C@H]1COC[C@@H]1O)c1cc(-c2ccc(Cl)cc2)nn(-c2cccc(F)c2)c1=O (single isomer, unassigned) [Example 135, 6-(4-Chlorophenyl)-2-(3-fluorophenyl)-N-(trans-4-hydroxytetrahydrofuran-3-yl)-3-oxo-2,3-dihydropyridazine-4-carboxamide] | > 2e-05 |  | 1.41e-07 |  | 1.32e-07 |
